This note sets out measurements from ChEMBL document CHEMBL1201862, “PubChem BioAssay data set” (2004).

What all share (experiment): inhibition of tumour cell growth, NCI panel, 48 h
Test [1] has as its system 786-0.
The subject of test [2] is CCRF-CEM.
Test [3] has as its system HCT-116.
Test [4] relates to HOP-62.
Test [5] concerns K562.
The subject of test [6] is MOLT-4.
Test [7] concerns Malme-3M.
For test [8], the system named is NCI-H226.
In test [9] the test system is NCI-H23.
Test [10] has as its system OVCAR-8.
Test [11] deals with SF-295.
Test [12] deals with SF-539.
Test [13] has as its system SK-MEL-28.
For test [14], the system named is SK-MEL-5.
Test [15] has as its system SNB-19.
Test [16] has as its system SNB-75.
Test [17] concerns UACC-257.
Test [18] deals with HCT-15.
For test [19], the system named is HOP-92.

Molecules are shown by their SMILES.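 Growth conditions: 96-well plates. Treatment: test compound, 48 hours, 5 concentrations. Analysis: linear interpolation between bracketing concentrations; unreached endpoints set to highest concentration. Here, GI50 denotes the concentration required for 50% inhibition of growth.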 Activity calls are given as the source filed them. Rule as the data show it: active = GI50 up to about 1.1 µM and inactive = higher.

For the compound `CCOC(=O)/C([O-])=C(\C(=O)OCC)[n+]1c(C)n(C)c2ccccc21`, the GI50 in test [1], in [2], in test [3], in [4], in test [5] and in [6] was > 100 µM (inactive) each time. For the same compound, the GI50 in test [7], in test [8], in test [9], in [10], in test [11] and in test [12] was > 100 µM (inactive) each time. Further, the GI50 in test [13], in [14], in [15], in test [16] and in [17] was > 100 µM (inactive) each time.

For `NC12CC3CC(C1)CC(C(=O)O)(C3)C2`, the GI50 is > 100 µM (inactive) in test [1]; > 100 µM (inactive) in test [2]; > 100 µM (inactive) in test [3]; > 100 µM in test [18]; > 100 µM (inactive) in test [4]; > 100 µM (inactive) in test [19]. For the same compound, the GI50 is 2.73 µM (inactive) in [5]; > 100 µM (inactive) in test [6]; > 100 µM (inactive) in [9]; > 100 µM (inactive) in test [10]; > 100 µM (inactive) in test [11]; > 100 µM (inactive) in test [12]. Also, the GI50 in [13], in test [14], in test [15], in test [16] and in [17] was > 100 µM (inactive) each time.

As for `O=c1[nH]c2c3ccccc3ccc2c2cc3c(cc12)OCO3`, the GI50 is > 100 µM (inactive) in test [1]; 69.8 µM (inactive) in test [2]; 83.2 µM (inactive) in test [3]; 71.6 µM in test [18]; 89.1 µM (inactive) in test [4]; 38.5 µM (inactive) in test [5]. Moreover, the GI50 was 40 µM (inactive) in test [6]; > 100 µM (inactive) in test [7]; > 100 µM (inactive) in [8]; > 100 µM (inactive) in test [9]; > 100 µM (inactive) in [10]; > 100 µM (inactive) in [11]. For the same compound, the GI50 in test [12] was > 100 µM (inactive); in test [13], > 100 µM (inactive); in test [14] it was 43.5 µM (inactive); in test [15] it was > 100 µM (inactive); in [16], 31.4 µM (inactive); in test [17] it was > 100 µM (inactive).

For the compound `CCOP(=O)(C/C(=N/NC(C)(C)C)C(=O)Nc1nc2ccc(C)cc2s1)OCC`, the GI50 in test [1] is > 100 µM (inactive); in test [2] it was > 100 µM (inactive); in test [3], > 100 µM (inactive); in [18], > 100 µM; in [4], > 100 µM (inactive); in test [5] it was > 100 µM (inactive). The GI50 in [6], in test [7], in test [8], in test [9], in [10] and in [11] was > 100 µM (inactive) throughout. In addition, the GI50 in test [12], in test [13], in test [14], in [15], in test [16] and in [17] was > 100 µM (inactive) in each case.
